Assay results published in ChEMBL document CHEMBL1201862, “PubChem BioAssay data set” (2004).
Activity calls are given as the source filed them.

Experiments:
[1] = target: Hexokinase (Trypanosoma brucei, UniProt Q38C41); assay: Confirmation assay for inhibitors of Trypanosoma brucei hexokinase 1-Analogue-first series. [Related pubchem assays (depositor defined):AID1430, AID1632, AID2516, AID2560, AID2579, AID2600, AID449725, AID492951]; type: functional
[2] = target: Mu-type opioid receptor (Homo sapiens, UniProt P35372); assay: SAR Analysis of Antagonists of the MOR Receptor using an Image-Based Assay - Set 3. [Related pubchem assays (depositor defined):AID1777, AID1785, AID1786, AID1966, AID2133, AID2136, AID2284, AID2285, AID2420]; type: functional
Mu-type opioid receptor, sequence (P35372 whole entry): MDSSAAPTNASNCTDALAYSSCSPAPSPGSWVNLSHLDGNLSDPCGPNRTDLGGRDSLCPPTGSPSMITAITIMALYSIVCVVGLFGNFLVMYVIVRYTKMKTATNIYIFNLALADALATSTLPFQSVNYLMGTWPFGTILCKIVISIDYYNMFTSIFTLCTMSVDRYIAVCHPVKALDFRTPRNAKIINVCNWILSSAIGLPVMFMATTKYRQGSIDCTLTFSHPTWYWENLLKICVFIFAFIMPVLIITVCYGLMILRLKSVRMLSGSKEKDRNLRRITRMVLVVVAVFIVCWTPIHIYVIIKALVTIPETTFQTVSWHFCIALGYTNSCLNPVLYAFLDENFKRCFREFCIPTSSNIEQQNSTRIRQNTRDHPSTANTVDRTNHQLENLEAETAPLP

[3] = target: Delta-type opioid receptor (Homo sapiens, UniProt P41143); assay: SAR Analysis of Antagonists of the DOR Receptor using an Image-Based Assay - Set 3. [Related pubchem assays (depositor defined):AID1777, AID1785]; type: functional;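 further: U2OS cells expressing DOR1 and beta-arrestin GFP stimulated with 100 nM SNC80; imaging of GFP-tagged beta-arrestin moving into spots after receptor activation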
[4] = target: T1, Kappa-type opioid receptor (Homo sapiens, UniProt P41145); assay: SAR analysis of small molecule antagonists of the kappa opioid receptor via a luminescent beta-arrestin assay - Set 3. [Related pubchem assays (depositor defined):AID1777, AID1778, AID1785, AID1786, AID1966, AID2133, AID2136, AID2285, AID2495]; type: functional
T1 sequence (P41145 whole entry): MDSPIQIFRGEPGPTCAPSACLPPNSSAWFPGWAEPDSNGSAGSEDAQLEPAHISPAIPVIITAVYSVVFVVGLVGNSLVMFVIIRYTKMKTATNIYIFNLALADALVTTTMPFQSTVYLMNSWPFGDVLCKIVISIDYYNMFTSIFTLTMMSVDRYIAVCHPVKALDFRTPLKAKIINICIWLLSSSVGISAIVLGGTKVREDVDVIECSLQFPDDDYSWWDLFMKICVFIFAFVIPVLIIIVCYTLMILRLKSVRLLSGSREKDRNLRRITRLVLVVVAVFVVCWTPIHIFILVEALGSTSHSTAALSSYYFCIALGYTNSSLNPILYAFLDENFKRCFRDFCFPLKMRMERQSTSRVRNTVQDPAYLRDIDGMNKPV

[5] = target: T1, Kappa-type opioid receptor; assay: SAR analysis of Antagonists of the Kappa Opioid Receptor (KOR) using an Image-Based Assay - Set 3. [Related pubchem assays (depositor defined):AID1777, AID1785]; type: functional
[6] = target: Galanin receptor type 2 (Homo sapiens, UniProt O43603); assay: Dose Response cell-based high-throughput screening assay to identify antagonists of galanin receptor 2 (GALR2). [Related pubchem assays: 828, 866 ]; type: functional
[7] = target: Ion channel NompC (Danio rerio, UniProt Q7T1G6); assay: Dose response cell-based high-throughput screening assay for agonists of the transient receptor potential channel N1 (TRPN1). [Related pubchem assays (depositor defined):AID1424, AID1448]; type: functional
Ion channel NompC, sequence (Q7T1G6 whole entry): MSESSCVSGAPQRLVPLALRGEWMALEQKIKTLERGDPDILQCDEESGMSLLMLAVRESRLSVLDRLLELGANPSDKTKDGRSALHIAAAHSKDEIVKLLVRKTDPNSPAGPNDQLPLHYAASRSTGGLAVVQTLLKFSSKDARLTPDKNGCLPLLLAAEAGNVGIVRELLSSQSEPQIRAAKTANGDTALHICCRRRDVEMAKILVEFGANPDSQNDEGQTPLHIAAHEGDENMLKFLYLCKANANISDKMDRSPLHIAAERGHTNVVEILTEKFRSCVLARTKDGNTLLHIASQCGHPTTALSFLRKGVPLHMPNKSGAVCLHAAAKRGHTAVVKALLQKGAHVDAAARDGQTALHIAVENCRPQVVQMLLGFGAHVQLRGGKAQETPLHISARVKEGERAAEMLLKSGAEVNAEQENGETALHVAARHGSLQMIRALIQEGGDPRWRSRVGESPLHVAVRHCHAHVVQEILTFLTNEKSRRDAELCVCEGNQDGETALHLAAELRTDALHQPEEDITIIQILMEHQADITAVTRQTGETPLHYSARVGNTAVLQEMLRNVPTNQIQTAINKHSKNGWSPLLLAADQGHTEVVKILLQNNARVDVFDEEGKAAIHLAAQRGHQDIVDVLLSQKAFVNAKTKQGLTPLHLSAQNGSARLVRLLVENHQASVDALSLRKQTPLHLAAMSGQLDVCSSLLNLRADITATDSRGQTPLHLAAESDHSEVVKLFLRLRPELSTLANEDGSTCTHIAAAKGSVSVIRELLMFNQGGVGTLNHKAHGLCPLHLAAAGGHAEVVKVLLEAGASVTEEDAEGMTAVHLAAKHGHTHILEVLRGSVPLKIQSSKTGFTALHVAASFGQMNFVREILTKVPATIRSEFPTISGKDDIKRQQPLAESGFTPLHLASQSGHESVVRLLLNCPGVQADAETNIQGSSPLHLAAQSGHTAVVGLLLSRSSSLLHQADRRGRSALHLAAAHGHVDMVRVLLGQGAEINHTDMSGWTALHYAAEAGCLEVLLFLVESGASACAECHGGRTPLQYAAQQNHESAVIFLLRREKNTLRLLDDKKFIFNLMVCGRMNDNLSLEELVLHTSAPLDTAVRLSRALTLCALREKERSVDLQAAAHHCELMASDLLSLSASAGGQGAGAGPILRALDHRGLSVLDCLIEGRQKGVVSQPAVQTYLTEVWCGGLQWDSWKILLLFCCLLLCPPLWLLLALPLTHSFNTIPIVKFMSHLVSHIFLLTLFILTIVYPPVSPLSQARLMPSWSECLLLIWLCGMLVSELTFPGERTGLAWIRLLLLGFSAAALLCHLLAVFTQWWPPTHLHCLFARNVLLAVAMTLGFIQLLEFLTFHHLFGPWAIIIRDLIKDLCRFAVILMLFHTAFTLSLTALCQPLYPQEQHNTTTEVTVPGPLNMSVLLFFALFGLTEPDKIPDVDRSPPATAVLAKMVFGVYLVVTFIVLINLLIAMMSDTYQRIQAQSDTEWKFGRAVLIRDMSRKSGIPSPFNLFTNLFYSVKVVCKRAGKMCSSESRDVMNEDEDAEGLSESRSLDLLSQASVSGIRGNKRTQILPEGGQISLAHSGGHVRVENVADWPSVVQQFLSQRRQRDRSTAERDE

[8] = target: T2, Mucolipin-3 (Homo sapiens, UniProt Q8TDD5); assay: Fluorescence counterscreen assay for […] agonists: dose response cell-based high-throughput screening assay to identify agonists of the transient receptor potential channel ML3 (TRPML3). [Related pubchem assays: 1424, 1448 ]; type: functional
T2 sequence (Q8TDD5 whole entry): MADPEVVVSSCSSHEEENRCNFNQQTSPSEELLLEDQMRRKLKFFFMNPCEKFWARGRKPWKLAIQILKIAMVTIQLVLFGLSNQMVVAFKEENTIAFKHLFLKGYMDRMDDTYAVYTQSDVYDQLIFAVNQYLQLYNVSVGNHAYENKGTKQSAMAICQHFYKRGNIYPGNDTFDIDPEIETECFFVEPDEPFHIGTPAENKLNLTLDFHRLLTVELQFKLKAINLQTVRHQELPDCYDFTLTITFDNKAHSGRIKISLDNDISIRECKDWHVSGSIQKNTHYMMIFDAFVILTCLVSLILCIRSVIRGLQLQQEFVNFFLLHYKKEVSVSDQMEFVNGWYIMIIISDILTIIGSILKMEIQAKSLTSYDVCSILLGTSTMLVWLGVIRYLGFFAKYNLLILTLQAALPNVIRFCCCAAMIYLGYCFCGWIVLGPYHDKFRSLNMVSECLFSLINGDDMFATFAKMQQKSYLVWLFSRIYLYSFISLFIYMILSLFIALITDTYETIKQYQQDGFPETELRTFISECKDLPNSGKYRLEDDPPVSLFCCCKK

[9] = test system: INS1; assay: beta cell apoptosis inhibitors, cytokine rescue, dose response, luminescence, retest (AID 449756); type: functional, cell-based; conditions: Rattus norvegicus;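 further: cell death triggered by IL-1 beta plus TNF-alpha plus IFN-gamma mixture; protective hits raise ATP signal compared with cytokine alone wells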
[10] = target: T3, Galanin receptor type 3 (Homo sapiens, UniProt O60755); assay: Fluorescence-based cell-based primary high throughput dose response assay to identify antagonists of the Galanin Receptor 3 (GalR3).; type: functional
T3 sequence (O60755 whole entry): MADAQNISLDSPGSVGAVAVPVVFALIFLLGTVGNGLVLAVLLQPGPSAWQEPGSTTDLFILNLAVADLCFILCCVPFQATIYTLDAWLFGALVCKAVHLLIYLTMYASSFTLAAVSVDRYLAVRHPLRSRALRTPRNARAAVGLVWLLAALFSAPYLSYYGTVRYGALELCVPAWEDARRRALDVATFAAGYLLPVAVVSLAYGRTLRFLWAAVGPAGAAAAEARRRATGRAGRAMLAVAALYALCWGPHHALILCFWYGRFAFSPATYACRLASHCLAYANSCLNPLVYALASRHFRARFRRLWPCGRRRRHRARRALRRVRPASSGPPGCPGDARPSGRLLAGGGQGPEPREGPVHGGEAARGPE

[11] = cells; type: functional, cell-based; conditions: HEK-CNG
[12] = test system: HEK293; assay: NOD1 signaling inhibitors, primary screen, cell-based, luminescence, uHTS (AID 1578); type: functional; conditions: Homo sapiens
[13] = test system: HEK293; assay: cells; type: functional, cell-based; conditions: Homo sapiens
[14] = target: Transitional endoplasmic reticulum ATPase (Homo sapiens, UniProt P55072, C522A); assay: C522A mutant p97 ATPase inhibitors, dose response, counter-screen for p97 inhibitor project, biochemical, luminescence (AID 1544)
[15] = test system: HEK293; assay: cells; type: functional, cell-based; conditions: Homo sapiens; remark: listed apart in the source
[16] = target: T4, Nucleotide-binding oligomerization domain-containing protein 2 (Homo sapiens, UniProt Q9HC29); assay: NOD2 signaling inhibitors, cell-based, luminescence, uHTS, HEK293 (AID 1566); type: functional
T4 sequence (Q9HC29 whole entry, the tested form may be a part): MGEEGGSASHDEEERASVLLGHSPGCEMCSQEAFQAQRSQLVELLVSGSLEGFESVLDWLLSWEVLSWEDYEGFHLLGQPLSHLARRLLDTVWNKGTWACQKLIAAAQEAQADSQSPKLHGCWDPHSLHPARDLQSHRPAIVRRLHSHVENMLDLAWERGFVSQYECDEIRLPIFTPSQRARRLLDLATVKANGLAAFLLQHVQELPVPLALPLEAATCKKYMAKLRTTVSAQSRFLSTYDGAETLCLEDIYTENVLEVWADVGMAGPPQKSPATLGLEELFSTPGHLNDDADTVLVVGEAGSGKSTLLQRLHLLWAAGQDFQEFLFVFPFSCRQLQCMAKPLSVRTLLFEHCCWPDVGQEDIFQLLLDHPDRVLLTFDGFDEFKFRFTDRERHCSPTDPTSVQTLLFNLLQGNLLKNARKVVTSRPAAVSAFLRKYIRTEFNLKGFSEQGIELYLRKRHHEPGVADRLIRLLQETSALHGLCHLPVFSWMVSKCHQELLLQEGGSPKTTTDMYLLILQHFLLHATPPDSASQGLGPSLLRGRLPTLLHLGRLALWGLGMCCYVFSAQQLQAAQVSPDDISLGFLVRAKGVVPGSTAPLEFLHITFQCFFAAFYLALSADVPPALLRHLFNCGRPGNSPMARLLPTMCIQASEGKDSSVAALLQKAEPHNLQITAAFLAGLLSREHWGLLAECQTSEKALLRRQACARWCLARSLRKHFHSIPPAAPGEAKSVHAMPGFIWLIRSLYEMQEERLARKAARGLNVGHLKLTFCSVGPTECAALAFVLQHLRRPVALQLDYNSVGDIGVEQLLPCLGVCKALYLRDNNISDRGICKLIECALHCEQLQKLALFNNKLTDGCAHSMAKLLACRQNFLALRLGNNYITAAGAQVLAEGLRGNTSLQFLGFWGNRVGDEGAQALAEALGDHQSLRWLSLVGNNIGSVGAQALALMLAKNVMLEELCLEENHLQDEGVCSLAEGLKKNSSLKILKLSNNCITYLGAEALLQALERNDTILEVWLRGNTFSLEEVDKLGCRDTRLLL

[17] = test system: HEK293; assay: NOD2 signaling inhibitors in MDP-stimulated cells, cell-based, uHTS, luminescence (AID 2001); type: functional; conditions: Homo sapiens
[18] = test system: HEK293; assay: cells; type: functional, cell-based; conditions: Homo sapiens; remark: listed apart in the source
[19] = target: Transitional endoplasmic reticulum ATPase (Homo sapiens, UniProt P55072); assay: p97 ATPase inhibitors, dose response, biochemical (AID 1534)
Transitional endoplasmic reticulum ATPase (Homo sapiens, UniProt P55072), sequence (P55072 whole entry, the tested form may be a part): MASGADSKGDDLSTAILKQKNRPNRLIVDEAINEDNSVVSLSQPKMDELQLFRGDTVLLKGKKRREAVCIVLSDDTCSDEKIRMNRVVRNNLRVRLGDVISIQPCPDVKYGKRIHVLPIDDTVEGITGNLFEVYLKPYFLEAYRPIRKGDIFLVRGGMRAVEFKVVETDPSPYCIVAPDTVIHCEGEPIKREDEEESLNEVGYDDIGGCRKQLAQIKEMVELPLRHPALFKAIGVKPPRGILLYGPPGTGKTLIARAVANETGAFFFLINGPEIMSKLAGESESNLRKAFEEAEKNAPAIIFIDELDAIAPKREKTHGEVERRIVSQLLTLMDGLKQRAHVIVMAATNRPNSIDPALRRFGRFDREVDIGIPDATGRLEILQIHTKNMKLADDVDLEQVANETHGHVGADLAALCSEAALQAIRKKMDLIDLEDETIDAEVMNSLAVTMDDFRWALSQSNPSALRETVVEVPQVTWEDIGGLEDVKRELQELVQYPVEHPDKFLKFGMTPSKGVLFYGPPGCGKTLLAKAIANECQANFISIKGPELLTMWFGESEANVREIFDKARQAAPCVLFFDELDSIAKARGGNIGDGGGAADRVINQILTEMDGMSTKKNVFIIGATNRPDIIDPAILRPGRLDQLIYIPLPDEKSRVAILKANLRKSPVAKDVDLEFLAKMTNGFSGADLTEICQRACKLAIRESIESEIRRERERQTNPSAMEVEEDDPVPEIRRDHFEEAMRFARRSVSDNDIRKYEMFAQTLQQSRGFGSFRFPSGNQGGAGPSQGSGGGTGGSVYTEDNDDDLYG

[20] = target: T4, Nucleotide-binding oligomerization domain-containing protein 2; assay: NOD2 inhibitors, SAR follow-up, set 2 (AID 2475); type: functional
[21] = target: T5, Tumor necrosis factor (Homo sapiens, UniProt P01375); assay: TNFa-triggered NF-kB activation inhibitors, SAR follow-up, cell-based, revised (AID 2337); type: functional
T5 sequence (P01375 whole entry): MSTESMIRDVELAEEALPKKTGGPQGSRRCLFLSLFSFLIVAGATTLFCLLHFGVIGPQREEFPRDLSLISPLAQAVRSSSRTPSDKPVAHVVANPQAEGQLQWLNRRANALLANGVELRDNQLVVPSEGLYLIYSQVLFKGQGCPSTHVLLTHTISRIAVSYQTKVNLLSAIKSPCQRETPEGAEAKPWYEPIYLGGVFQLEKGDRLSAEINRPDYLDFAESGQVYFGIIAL

[22] = test system: HEK293; assay: SAR analysis of compounds that are cytotoxic to HEK293 - Set 2. [Related pubchem assays (depositor defined):AID1575, AID1578, AID1849, AID2001, AID2333, AID2334, AID2335, AID2337, AID2800]; type: functional, cell-based; conditions: Homo sapiens
[23] = target: T6, Nucleotide-binding oligomerization domain-containing protein 1 (Homo sapiens, UniProt Q9Y239); assay: NOD1 signaling inhibitors, SAR follow-up, revised (AID 2333); type: functional
T6 sequence (Q9Y239 whole entry): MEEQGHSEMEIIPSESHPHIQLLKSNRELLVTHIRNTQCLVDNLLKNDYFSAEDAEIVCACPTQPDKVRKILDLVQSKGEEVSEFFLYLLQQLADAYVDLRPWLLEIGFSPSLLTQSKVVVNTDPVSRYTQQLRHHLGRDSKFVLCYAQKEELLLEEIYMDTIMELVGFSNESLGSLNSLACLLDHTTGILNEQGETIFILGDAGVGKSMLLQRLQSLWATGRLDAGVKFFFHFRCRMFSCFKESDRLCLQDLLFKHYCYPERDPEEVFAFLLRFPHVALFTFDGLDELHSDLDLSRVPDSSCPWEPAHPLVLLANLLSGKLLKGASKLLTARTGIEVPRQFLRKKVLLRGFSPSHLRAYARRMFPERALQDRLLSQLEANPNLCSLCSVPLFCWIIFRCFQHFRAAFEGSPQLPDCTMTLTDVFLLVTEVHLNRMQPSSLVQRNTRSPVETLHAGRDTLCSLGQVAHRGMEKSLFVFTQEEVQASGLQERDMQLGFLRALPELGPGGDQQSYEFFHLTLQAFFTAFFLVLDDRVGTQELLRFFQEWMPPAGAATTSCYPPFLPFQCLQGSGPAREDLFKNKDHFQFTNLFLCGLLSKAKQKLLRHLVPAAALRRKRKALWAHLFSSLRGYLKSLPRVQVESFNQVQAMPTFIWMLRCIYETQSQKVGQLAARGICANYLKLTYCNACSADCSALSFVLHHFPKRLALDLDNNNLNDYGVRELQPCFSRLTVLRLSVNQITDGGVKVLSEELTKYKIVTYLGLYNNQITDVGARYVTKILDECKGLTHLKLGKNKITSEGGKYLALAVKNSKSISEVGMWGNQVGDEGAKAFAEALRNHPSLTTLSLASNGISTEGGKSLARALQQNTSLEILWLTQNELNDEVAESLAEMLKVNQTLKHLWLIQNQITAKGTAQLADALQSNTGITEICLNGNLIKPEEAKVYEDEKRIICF

[24] = target: T6, Nucleotide-binding oligomerization domain-containing protein 1; assay: SAR analysis of compounds that inhibit NOD1 - Set 2. [Related pubchem assays (depositor defined):AID1566, AID1575, AID1578, AID1849, AID1852, AID2333, AID2335, AID2798]; type: functional
[25] = target: T5, Tumor necrosis factor; assay: TNFa-triggered NF-kB activation inhibitors, SAR follow-up, cell-based, set 2 (AID 2483); type: functional
[26] = target: T4, Nucleotide-binding oligomerization domain-containing protein 2; assay: PubChem AID 2334; type: functional
[27] = test system: HEK293; assay: cells; conditions: Homo sapiens
[28] = target: DNA damage-inducible transcript 3 protein (Mus musculus, UniProt P35639); type: functional, Cricetulus griseus
DNA damage-inducible transcript 3 protein, sequence (P35639 whole entry): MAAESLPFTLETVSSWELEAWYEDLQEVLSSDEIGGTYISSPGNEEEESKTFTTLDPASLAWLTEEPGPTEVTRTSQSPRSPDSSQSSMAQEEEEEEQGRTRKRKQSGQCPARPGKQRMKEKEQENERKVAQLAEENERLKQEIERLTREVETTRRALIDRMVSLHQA

[29] = target: T7, Microphthalmia-associated transcription factor (Homo sapiens, UniProt O75030); assay: TRPM1 promoter luciferase signal decrease, dose response, MITF inhibitor project, cell-based, SK-MEL-5, cherry-picked, set 3 (AID 493073); type: functional
T7 sequence (O75030 whole entry): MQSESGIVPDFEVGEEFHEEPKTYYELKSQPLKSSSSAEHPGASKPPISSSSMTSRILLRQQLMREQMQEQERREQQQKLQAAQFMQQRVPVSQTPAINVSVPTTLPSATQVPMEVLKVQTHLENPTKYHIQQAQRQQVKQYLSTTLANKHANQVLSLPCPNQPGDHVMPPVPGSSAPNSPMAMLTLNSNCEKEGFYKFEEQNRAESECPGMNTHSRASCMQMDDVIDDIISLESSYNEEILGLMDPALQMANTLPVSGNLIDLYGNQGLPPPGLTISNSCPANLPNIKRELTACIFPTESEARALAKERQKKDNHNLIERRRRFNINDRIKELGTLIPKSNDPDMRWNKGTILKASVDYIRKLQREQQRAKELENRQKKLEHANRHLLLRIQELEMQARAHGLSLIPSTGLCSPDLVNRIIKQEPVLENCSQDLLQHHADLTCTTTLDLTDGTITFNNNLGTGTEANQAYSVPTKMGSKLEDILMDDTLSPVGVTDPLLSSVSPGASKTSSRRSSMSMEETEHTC

[30] = test system: CHO; assay: cytotoxicity in TLR9-MyD88 CHO cells, dose response, cytotoxicity control for TLR9-MyD88 binding inhibitor project, cell-based, luminescence (AID 588339); type: functional, hamster; conditions: Cricetulus griseus;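 further: CHO cells stably coexpressing TLR9 and MyD88 fusions from primary screen; compound exposure lasted 48 hours before viability readout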
[31] = target: T8, Beta Lactamase (Pseudomonas aeruginosa, UniProt Q932Y6); assay: beta-lactamase reporter inhibitor potency, dose response, artefact control for TLR9-MyD88 binding inhibitor project, BLA reporter cells, FRET fluorescence (AID 588341); type: cell-based;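 further: cell based assay in CHO-K1 cells stably expressing beta-lactamase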
T8 sequence (Q932Y6 whole entry): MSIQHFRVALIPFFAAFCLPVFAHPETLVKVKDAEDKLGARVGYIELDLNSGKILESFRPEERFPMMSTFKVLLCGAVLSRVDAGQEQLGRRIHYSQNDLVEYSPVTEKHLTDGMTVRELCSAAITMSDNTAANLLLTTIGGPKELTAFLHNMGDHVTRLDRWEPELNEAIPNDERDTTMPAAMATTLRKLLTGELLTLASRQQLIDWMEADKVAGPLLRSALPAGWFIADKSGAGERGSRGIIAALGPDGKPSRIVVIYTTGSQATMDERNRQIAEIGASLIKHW

[32] = Shn3 3'UTR reporter inhibitors, dose response, cell-based, Clone20 osteoblasts, firefly luciferase, cherry-picked (AID 624132); type: functional;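 further: firefly luciferase luminescence from reporter carrying the Shn3 3'UTR in osteoblasts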
[33] = HepG2 cell cytotoxicity, dose response, cytotoxicity control for Shn3 inhibitor project, CellTiter-Glo, cherry-picked (AID 624134); type: functional, cell-based
[34] = control 3'UTR Renilla luciferase suppression, dose response, counter-screen for Shn3 inhibitor project, cell-based, Clone20-Shn3RL, cherry-picked (AID 624133); type: functional
[35] = Fluorescence-based cell-based high throughput dose response assay for inhibitors of the interaction of nucleotide-binding oligomerization domain containing 2 (NOD2) and the receptor-interacting serine-threonine kinase 2 (RIPK2).; type: functional; conditions: Homo sapiens
[36] = target: T8, Beta Lactamase; assay: beta-lactamase reporter inhibitor potency, dose response, artefact control for NOD2-RIPK2 interaction inhibitor project, BLA reporter cells, FRET fluorescence (AID 651552); type: functional, cell-based

## O=c1cc(-c2ccccc2)sn1-c1ccccc1
[1]
  IC50: > 25 µM (inactive)

## CCc1ccc(S(=O)(=O)NCc2ccc(C(=O)NCCN(Cc3ccc(C)cc3)C(C)C)cc2)cc1
[2]
  IC50: > 32 µM (inactive)
[3]
  IC50: > 32 µM (inactive)
[4]
  IC50: 0.742 µM (active)
[5]
  IC50: 0.173 µM (active)

## C1=C(CCNc2[nH]cnc3c4ccccc4nc2-3)CCCC1
[6]
  IC50: > 42 µM (not active)
[7]
  EC50: > 29.9 µM (inactive)
[8]
  EC50: > 29.9 µM (not active)
[9]
  AC50: 0.219 µM (active)
[10]
  IC50: 0.383 µM (active)
[11]
  EC50: > 29.9 µM (inactive)

## Cc1ccc(C)c(SCC(=O)OC/C(O)=C(\C#N)c2nc3ccccc3[nH]2)c1
[12]
  EC50: > 20 µM (inactive)
[13]
  IC50: > 20 µM (inactive)
[14]
  IC50: > 50 µM (not active)
[15]
  IC50: > 20 µM (inactive)
[16]
  EC50: > 20 µM (inactive)
[17]
  IC50: 4.92 µM (inactive)
[18]
  IC50: > 20 µM (inactive)
[19]
  IC50: > 50 µM (not active)
[20]
  IC50: 4.21 µM (active)
[21]
  IC50: > 20 µM (inactive)
[22]
  IC50: > 20 µM (inactive)
[23]
  IC50: > 20 µM (inactive)
[24]
  IC50: 4.55 µM (active)
[25]
  IC50: > 20 µM (inactive)
[26]
  IC50: > 20 µM (inactive)
[27]
  IC50: > 20 µM (inactive)

## CS(=O)(=O)c1nc(-c2ccc(F)cc2)cc(C(F)(F)F)n1
[28]
  Absolute IC50 (CHOP): 10 µM
[29]
  AC50: 7.2 µM (active)
[30]
  IC50: 3.27 µM (active)
[31]
  IC50: 27.4 µM (inactive)
[32]
  AC50: 2.72 µM (active)
[33]
  AC50: 24.5 µM (active)
[34]
  AC50: 7.39 µM (active)
[35]
  IC50: 2.79 µM (active)
[36]
  IC50: 17.7 µM (inactive)
[10]
  IC50: > 29.9 µM (inactive)
[11]
  EC50: > 29.9 µM (inactive)
